Reference: US6451336B2, “Method for increasing brown fat, comprising administering conjugated linoleic acid as active ingredient” (Rinoru Oil Mills Co., Ltd., priority 1999, dated 2002)

Tests used:
[1] = system: carnitine palmitoyltransferase (CPT); assay: Carnitine palmitoyltransferase (CPT) activity in brown adipose tissues of rats fed CLA; type: in vivo, Sprague-Dawley male rats; settings: 1.0% CLA in diet, 4 weeks
Excerpt: (§1) Sprague-Dawley male rats of four weeks of age were pre-bred, and then divided into two groups (each group consisting of 8 rats), a 1.0% linoleic acid group (a control group) and a 1.0% CLA group. The experimental diet shown in Table 1 and water were then freely fed to these two groups of rats. […] Four weeks after the initiation of feeding, the 8 rats constituting each group were sacrificed, and the organs were taken out.
Further, the activity of carnitine palmitoyltransferase (CPT) as a rate-determining enzyme in β-oxidation of fatty acids was measured in brown adipose tissues.

[2] = Feeding of 1.0% CLA diet to rats for four weeks: growth and weight of organs; type: in vivo, Sprague-Dawley male rats; settings: 1.0% CLA in diet, 4 weeks
Excerpt: as §1

Substance: conjugated linoleic acid [CLA]
- Activity of carnitine palmitoyltransferase (CPT) in brown adipose tissues, in words, compared with control group [1]: higher
- Food intake, in words, compared with 1.0% linoleic acid control group [2]: without affecting
- Weight gain, in words, compared with 1.0% linoleic acid control group [2]: without affecting
- Weight of adipose tissues around the kidney (white adipose tissues), in words, compared with control group [2]: significantly decreased
- Weight of brown adipose tissues in the back, in words, compared with control group [2]: significantly increased
- Weight of organs: Brain [2]: 0.38 g/100 g body weight
- Weight of organs: Brown adipose tissue [2]: 0.21 g/100 g body weight
- Weight of organs: Epididymal adipose tissue [2]: 1.17 g/100 g body weight
- Weight of organs: Heart [2]: 0.36 g/100 g body weight
- Weight of organs: Kidney [2]: 0.78 g/100 g body weight
- Weight of organs: Liver [2]: 4.40 g/100 g body weight
- Weight of organs: Lung [2]: 0.40 g/100 g body weight
- Weight of organs: Spleen [2]: 0.22 g/100 g body weight
- Weight of tissues of liver, kidney, heart, lungs, spleen and brain, in words, compared with control group [2]: no difference
- Food intake ([2]; free feeding): 21.0 g/day
- Weight gain ([2]; free feeding): 227 g/4 weeks
- Weight of organs: Peri-renal adipose tissue ([2]; white adipose tissue): 1.16 g/100 g body weight
